Results from PubChem BioAssay (NCI).
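Protocol summary: plate cells (96-well), add compound at 5 concentrations, incubate 48 h, interpolate endpoints linearly. GI50 is the concentration that inhibits growth by half. TGI denotes the concentration required for complete inhibition of growth.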

Columns and labels:
Assay in all cases: NCI tumour cell line growth inhibition, 48 h
[1] = test system: SK-MEL-5 melanoma
[2] = test system: MDA-N
[3] = test system: MDA-MB-435
[4] = test system: SW-620 colon
[5] = test system: DLD-1 colon
[6] = test system: KM20L2 colon
[7] = test system: SNB-78 CNS
[8] = test system: P388/ADR leukemia
[9] = test system: DMS 114 small cell lung
[10] = test system: HOP-18 NSCLC
[11] = test system: DMS 273 small cell lung
[12] = test system: P388 leukemia
[13] = test system: M19-MEL melanoma
[14] = test system: XF 498 CNS
[15] = test system: LXFL 529 NSCLC

## Clc1cc(OCc2nn3c(Cc4ccccc4)nnc3s2)c(Cl)cc1OCc1nn2c(Cc3ccccc3)nnc2s1
[1]
  TGI: > 100 µM
[2]
  TGI: > 100 µM
[3]
  TGI: > 100 µM
[4]
  TGI: > 100 µM

## c1csc(-c2ccc(CNc3c4ccccc4nc4ccccc34)cc2)c1
[1]
  GI50: 1.63 µM
  TGI: 3.01 µM
[3]
  GI50: 0.322 µM
  TGI: 1.09 µM

## CSCC(CO)NC(=O)/C=C/c1c(C)[nH]c(=O)[nH]c1=O (stereo not drawn)
[5]
  TGI: > 875 µM
[1]
  TGI: > 875 µM
[6]
  TGI: > 875 µM
[7]
  TGI: > 875 µM
[8]
  TGI: > 875 µM
[9]
  TGI: > 801 µM
[10]
  TGI: > 875 µM
[4]
  TGI: > 492 µM
[11]
  TGI: > 875 µM
[12]
  TGI: > 875 µM
[13]
  TGI: > 875 µM
[14]
  TGI: 815 µM

## Cc1cccc2c1Sc1ccccc1C2NC(=O)CN(C)C (stereo not drawn)
[1]
  TGI: > 100 µM
[6]
  TGI: 37.4 µM
[7]
  TGI: > 100 µM
[9]
  TGI: > 100 µM
[4]
  TGI: > 100 µM
[15]
  TGI: > 100 µM
[11]
  TGI: > 100 µM
[13]
  TGI: > 100 µM
[14]
  TGI: > 100 µM

## O=C1C(c2c(O)[nH]c3ccc(Cl)cc23)=Nc2ccccc21
[1]
  TGI: 17.7 µM
[2]
  TGI: > 100 µM
[3]
  TGI: > 100 µM
[4]
  TGI: > 100 µM

## O=S(O)CCCSSSCCCS(=O)O
[5]
  TGI: > 100 µM
[6]
  TGI: > 100 µM
[7]
  TGI: > 100 µM
[9]
  TGI: > 100 µM
[15]
  TGI: > 100 µM
[13]
  TGI: > 100 µM
[14]
  TGI: > 100 µM

## Cc1ccc(C(C)C)c(OCC(=O)N/N=C/c2c[nH]c3ccc(Br)cc23)c1
[1]
  TGI: 4.43 µM
[2]
  TGI: 2.94 µM
[3]
  TGI: 2.93 µM
[4]
  TGI: 18.6 µM

## CC1(C)N=C(c2ccccc2)SC12S[C@@H]1CCCC[C@H]1S2
[1]
  TGI: 54.5 µM
[2]
  TGI: 93.5 µM
[3]
  TGI: > 100 µM
[4]
  TGI: > 100 µM

## CN(C)c1cccc(OC(=O)NCCCl)c1
[5]
  TGI: > 100 µM
[1]
  TGI: > 100 µM
[6]
  GI50: > 100 µM
  TGI: > 100 µM
[7]
  GI50: > 100 µM
  TGI: > 100 µM
[8]
  TGI: > 100 µM
[9]
  TGI: > 100 µM
[10]
  TGI: > 100 µM
[4]
  TGI: > 100 µM
[11]
  TGI: > 100 µM
[13]
  TGI: > 100 µM
[14]
  TGI: > 100 µM

## O=C(Sc1n[nH]c(=O)[nH]c1=O)c1cccc2nc3ccccc3nc12
[1]
  TGI: 14.5 µM
[2]
  TGI: 28.6 µM
[3]
  TGI: 29 µM
[4]
  TGI: > 100 µM

## CN(c1ccccc1)c1nc(=[N+]2CCCC2)ss1
[1]
  TGI: > 100 µM
[6]
  TGI: > 100 µM
[7]
  TGI: > 100 µM
[9]
  TGI: > 100 µM
[10]
  TGI: > 100 µM
[4]
  TGI: > 100 µM
[15]
  TGI: > 100 µM
[11]
  TGI: > 100 µM

## c1ccc2c(c1)SP1Sc3ccccc3P21 (stereo not drawn)
[5]
  TGI: > 100 µM
[1]
  TGI: > 100 µM
[6]
  TGI: > 100 µM
[7]
  TGI: > 100 µM
[8]
  TGI: > 100 µM
[9]
  TGI: > 100 µM
[10]
  TGI: 73.1 µM
[4]
  TGI: > 100 µM
[11]
  TGI: > 100 µM
[12]
  TGI: > 100 µM
[13]
  TGI: > 100 µM
[14]
  TGI: > 100 µM

## NNC(=O)c1cc([N+](=O)[O-])ccc1NC(=O)C12CC3CC(CC(C3)C1)C2
[1]
  TGI: > 100 µM
[2]
  TGI: > 100 µM
[3]
  TGI: 48.5 µM
[4]
  TGI: > 100 µM

## COc1cc(NCCC(=O)O)c2ncccc2c1
[1]
  TGI: > 100 µM
[2]
  TGI: > 100 µM
[3]
  TGI: > 100 µM
[4]
  TGI: > 100 µM

## Cc1ccc(Nc2nc(=O)c3c([nH]c4ccccc43)s2)cc1
[1]
  TGI: 20.8 µM
[2]
  TGI: 5.87 µM
[3]
  TGI: 7.4 µM
[4]
  TGI: 24.3 µM

## S=c1[nH]n2c(COc3ccc(Cl)cc3)nnc2s1
[1]
  TGI: > 100 µM
[3]
  TGI: > 100 µM
[4]
  TGI: > 100 µM

## c1ccc2c(c1)SCCc1cn[nH]c1-2
[5]
  TGI: > 100 µM
[1]
  TGI: > 100 µM
[6]
  TGI: > 100 µM
[7]
  TGI: > 100 µM
[8]
  TGI: > 100 µM
[9]
  TGI: > 100 µM
[10]
  TGI: > 100 µM
[4]
  TGI: > 100 µM
[11]
  TGI: > 100 µM
[12]
  TGI: > 100 µM
[13]
  TGI: > 100 µM
[14]
  TGI: > 100 µM

## COC(=O)c1sc2c(c1C(=O)OC)C(=NC(C)(C)C)SC2=NC(C)(C)C
[1]
  TGI: 29.5 µM
[2]
  TGI: 34 µM
[3]
  TGI: 34.6 µM
[4]
  TGI: 35.4 µM

## N#C/C(=C\c1ccc([N+](=O)[O-])o1)c1n[nH]c(Cc2ccccc2)n1
[1]
  TGI: 2.51 µM
[2]
  TGI: 4.52 µM
[3]
  TGI: 6.92 µM
[4]
  TGI: > 100 µM

## COCCNCc1ccc(-c2cc3nccc(Oc4ccc(NC(=O)C5(C(=O)Nc6ccc(F)cc6)CC5)cc4F)c3s2)nc1
[3]
  GI50: 1.31 µM
  TGI: 2.68 µM
[4]
  GI50: 1.26 µM
  TGI: 3.27 µM

## CC[C@@H]([C@H](O)c1ccccc1Cl)[N+](=O)[O-]
[1]
  TGI: > 100 µM
[2]
  TGI: > 100 µM
[3]
  TGI: > 100 µM
[4]
  TGI: > 100 µM
